# From patent publication US20110172296A1, “MODULATION OF TRANSFORMING GROWTH FACTOR-BETA 1 EXPRESSION” (priority 2010, published 2011)
# e = 2'-O-(2-methoxyethyl) (MOE); d = 2'-deoxy (DNA)
# System: human TGF-beta1 mRNA
# Test: Dose-dependent confirmation of antisense inhibition of human TGF-beta1 in HuVEC cells, electroporation (Example 6)
# Type: cell-based
# Procedure: The gapmers from Example 5 (see Table 5) were also tested at various doses in HuVEC cells using electroporation as the transfection reagent. Cells were plated at a density of 20,000 cells per well and transfected using electroporation with 0.15625 nM, 0.3125 nM, 0.625 nM, 1.25 nM, 2.5 nM, 5 nM, 10 nM, and 20 nM concentrations of antisense oligonucleotide for 4 hours, as specified in Table 6. After a recovery period of approximately 16 hours, RNA was isolated from the cells and TGF-beta1 mRNA levels were measured by quantitative real-time PCR. TGF-beta1 mRNA levels were adjusted according to total RNA content, as measured by RIBOGREEN®. Results are presented as percent inhibition of TGF-beta1, relative to untreated control cells.
substance,measurement,setting,value
"414036 (antisense GTGTCCTTAAATACAGCCCC; sugars from the 5' end e2 d13 e5, backbone and methylation of C not given here) [compound 414036]",percent inhibition of TGF-beta1 mRNA relative to untreated control cells,0.15625 nM oligonucleotide,10%
same,percent inhibition of TGF-beta1 mRNA relative to untreated control cells,0.3125 nM oligonucleotide,38%
same,percent inhibition of TGF-beta1 mRNA relative to untreated control cells,0.625 nM oligonucleotide,55%
same,percent inhibition of TGF-beta1 mRNA relative to untreated control cells,1.25 nM oligonucleotide,74%
same,percent inhibition of TGF-beta1 mRNA relative to untreated control cells,2.5 nM oligonucleotide,83%
same,percent inhibition of TGF-beta1 mRNA relative to untreated control cells,5.00 nM oligonucleotide,92%
same,percent inhibition of TGF-beta1 mRNA relative to untreated control cells,10.00 nM oligonucleotide,94%
same,percent inhibition of TGF-beta1 mRNA relative to untreated control cells,20 nM oligonucleotide,92%
